Measurements reported in US20230114083A1, “PHOTOACOUSTIC IMAGING AGENT” (National University Corporation Hokkaido University, priority 2021, published 2023).
Counter-ions that a name gives are not always drawn. Like-named read-outs stand apart in the source and are kept apart here.

Assay: Measurement of optical absorption spectrum and its pH dependence (ultraviolet visible spectrophotometer)
Assay type: physicochemical
Conditions: for absorption maxima / shift of maximum absorption wavelength: in DMSO; for absorption maxima / pH dependence of absorption properties: 1 μM; for pH dependence of absorption properties: phosphate buffers of various pH, 30% by volume DMSO; for shift of maximum absorption wavelength: aryl piperazine cyanines
Procedure: In order to investigate the optical absorption properties of the synthesized ICG derivatives, absorption spectra were measured and their pH dependence was examined using an ultraviolet visible spectrophotometer at a concentration of 1 μM either in dimethyl sulfoxide (DMSO) or in phosphate buffers of various pH with DMSO as a cosolvent (30% by volume of DMSO and 70% by volume of phosphate buffer).
For each ICG derivative, an absorption spectrum consisted of relative absorbance was obtained by setting the absorbance of the absorption peak near 700 nm in DMSO (absorbance at the maximum absorption wavelength) to 1.
The optical absorption spectra of the IGC derivative PBA-Cy was measured at various pH values in the same manner as in Example 1.
The optical absorption properties of the synthesized ICG derivatives (PPA-Cy and SS-PPA-Cy) were investigated in the same manner as in Example 1, and their pH dependence was examined.

[1] = phosphate buffers of various pH with DMSO as cosolvent, from pH dependence of absorption spectra, read-out: pKa

Row | Compound | absorption maxima | pH dependence of absorption properties | other results
1 | 2-[2-[3-[2-[1,3-dihydro-3,3-dimethyl-1-(3-sulfopropyl)-2H-benz[e]indol-2-ylidene]ethylidene]-2-(4-methyl-1-piperazinyl)-1-cyclohexen-1-yl]ethenyl]-3,3-dimethyl-1-(3-sulfopropyl)-3H-benz[e]indolium, Inner Salt, Sodium Salt [MP-Cy] | ~700 nm | the maximum absorption wavelength shifted to the longer wavelength side as the pH became more acidic | 
2 | 2-[2-[3-[2-[1,3-dihydro-3,3-dimethyl-1-(3-sulfopropyl)-2H-benz[e]indol-2-ylidene]ethylidene]-2-[1-(4-cyanophenyl)-piperazinyl]-1-cyclohexen-1-yl]ethenyl]-3,3-dimethyl-1-(3-sulfopropyl)-3H-benz[e]indolium, Inner Salt, Sodium Salt [Nitrille-PhP-Cy] |  |  | shift of maximum absorption wavelength: the maximum absorption wavelength was shifted to the longer wavelength side
3 | CC1(C)C(/C=C/C2=C(N3CCN(CCC(=O)[O-])CC3)C(=C/C=C3/N(CCCS(=O)(=O)[O-])c4ccc5ccccc5c4C3(C)C)/CCC2)=[N+](CCCS(=O)(=O)[O-])c2ccc3ccccc3c21.[Na+].[Na+] [PPA-Cy, 2-[2-[2-[4-(2-carboxyethyl)piperazinyl]-3-[2-[1,3-dihydro-3,3-dimethyl-1-(3-sulfopropyl)-2H-benz[e]indol-2-ylidene]ethylidene]-1-cyclohexenyl]ethenyl]-3,3-dimethyl-1-(3-sulfopropyl)-3H-benz[e]indolium, Inner Salt, Sodium Salt] |  | the maximum absorption wavelength shifted to the longer wavelength side as the pH became more acidic | pKa [1]: 5.7
4 | 2-[2-[3-[2-[1,3-dihydro-3,3-dimethyl-1-(3-sulfopropyl)-2H-benz[e]indol-2-ylidene]ethylidene]-2-(4-methylsulfonyl-1-piperazinyl)-1-cyclohexen-1-yl]ethenyl]-3,3-dimethyl-1-(3-sulfopropyl)-3H-benz[e]indolium, Inner Salt, Sodium Salt [MSP-Cy] | around 800 nm |  | 
5 | CC1(C)C(/C=C/C2=C(N3CCN(Cc4ccc(CC(=O)O)cc4)CC3)C(=C/C=C3/N(CCCS(=O)(=O)[O-])c4ccc5ccccc5c4C3(C)C)/CCC2)=[N+](CCCS(=O)(=O)[O-])c2ccc3ccccc3c21.[Na+] [PBA-Cy, 2-[2-[3-[2-[1,3-dihydro-3,3-dimethyl-1-(3-sulfopropyl)-2H-benz[e]indol-2-ylidene]ethylidene]-2-[1-(4-carboxymethylbenzyl)-piperazinyl]-1-cyclohexen-1-yl]ethenyl]-3,3-dimethyl-1-(3-sulfopropyl)-3H-benz[e]indolium, Inner Salt, Sodium Salt] |  | shifted to the longer wavelength side as the pH became more acidic | pKa [1]: 4.9; molar absorption coefficient (used to calculate PBA-Cy concentration in conjugate solution): 32,000 M^−1 cm^−1
6 | 2-[2-[2-[4-(2-carboxyethyl)piperazinyl]-3-[2-[1,3-dihydro-3,3-dimethyl-1-(3-sulfopropyl)-7-sulfo-2H-benz[e]indol-2-ylidene]ethylidene]cyclohexen-1-yl]ethenyl]-3,3-dimethyl-1-(3-sulfopropyl)-7-sulfo-3H-benz[e]indolium, Inner Salt, Sodium Salt [SS-PPA-Cy] |  | the maximum absorption wavelength shifted to the longer wavelength side as the pH became more acidic | pKa: 6.8
7 | CC1(C)C(=CC=C2CCCC(C=CC3=[N+](CCCS(=O)(=O)[O-])c4ccc5ccccc5c4C3(C)C)=C2N2CC[N+](C)(C)CC2)N(CCCS(=O)(=O)[O-])c2ccc3ccccc3c21 [DMP-Cy, 2-[2-[3-[2-[1,3-dihydro-3,3-dimethyl-1-(3-sulfopropyl)-2H-benz[e]indol-2-ylidene]ethylidene]-2-(4-dimethyl-1-piperaziniumyl)-1-cyclohexen-1-yl]ethenyl]-3,3-dimethyl-1-(3-sulfopropyl)-3H-benz[e]indolium, Inner Salt, Sodium Salt] | around 800 nm |  | 
8 | 2-[2-[3-[2-[1,3-Dihydro-3,3-dimethyl-1-(3-sulfopropyl)-2H-benz[e]indol-2-ylidene]ethylidene]-2-(4-acetyl-1-piperazinyl)-1-cyclohexen-1-yl]ethenyl]-3,3-dimethyl-1-(3-sulfopropyl)-3H-benz[e]indolium, Inner Salt, Sodium Salt [AcP-Cy] | around 800 nm |  | 
9 | 2-[2-[3-[2-[1,3-dihydro-3,3-dimethyl-1-(3-sulfopropyl)-2H-benz[e]indol-2-ylidene]ethylidene]-2- [1-(4-nitrophenyl)-piperazinyl]-1-cyclohexen-1-yl]ethenyl]-3,3-dimethyl-1-(3-sulfopropyl)-3H-benz[e]indolium, Inner Salt, Sodium Salt [Nitro-PhP-Cy] |  |  | shift of maximum absorption wavelength: the maximum absorption wavelength was shifted to the longer wavelength side
10 | CC1(C)C(/C=C/C2=C(N3CCOCC3)C(=C/C=C3/N(CCCS(=O)(=O)[O-])c4ccc5ccccc5c4C3(C)C)/CCC2)=[N+](CCCS(=O)(=O)[O-])c2ccc3ccccc3c21.[Na+] [Mor-Cy, 2-[2-[3-[2-[1,3-dihydro-3,3-dimethyl-1-(3-sulfopropyl)-2H-benz[e]indol-2-ylidene]ethylidene]-2-(4-morpholinyl)-1-cyclohexen-1-yl]ethenyl]-3,3-dimethyl-1-(3-sulfopropyl)-3H-benz[e]indolium, Inner Salt, Sodium Salt] | ~700 nm | no change in absorption properties due to the pH | 
11 | CC1(C)C(=CC=C2CCCC(C=CC3=[N+](CCCS(=O)(=O)[O-])c4ccc5ccccc5c4C3(C)C)=C2N2CCCCC2)N(CCCS(=O)(=O)[O-])c2ccc3ccccc3c21.[Na+] [Piperi-Cy, 2-[2-[3-[2-[1,3-dihydro-3,3-dimethyl-1-(3-sulfopropyl)-2H-benz[e]indol-2-ylidene]ethylidene]-2-(1-piperidinyl)-1-cyclohexen-1-yl]ethenyl]-3,3-dimethyl-1-(3-sulfopropyl)-3H-benz[e]indolium, Inner Salt, Sodium Salt] | ~700 nm |  | 
